What was measured:
HIV-1Ba-L [1] = assay: HIV-1 infection of monocyte-derived macrophages (MDM), p24-core antigen ELISA; type: cell-based; conditions: Human immunodeficiency virus 1, Macrophage, 168 h; MDM infected with HIV-1Ba-L, p24 antigen after 7 days
Procedure: To correct for the input virus, an extra control consisting of medium containing the same amount of input virus as added to the cells was included in the experiment. The amount of p24 in this control was subsequently subtracted from the p24 values of the samples in order to obtain the exact amount of p24 produced by the cells. p24-core antigen quantification by ELISA After 2 or 7 days incubation, samples of the supernatants were collected, inactivated by addition of Empigen (Calbiochem, La Jolla, CA, USA) and by heat inactivation at 56°C for 30 min. p24-core antigen concentration was determined by an enzyme linked immunoabsorbent assay (ELISA) (AMPAK™, DAKO, Cambridgeshire, UK) as described previously ^18,19. The optical density values were converted into p24 concentration (ng/ml) with the use of a calibration curve made by serial dilutions of recombinant p24 protein (NIBSC, UK) that was submitted to the same treatment as the samples.

[2] = Cellular viability assay (MTT) of PBL; type: cell-based; conditions: human, 7 days, read-out: TC50
[3] = system: chronically HIV-1-infected U1 cell line; assay: Infection model with the chronically HIV-1-infected monocytic cell line U1, p24 ELISA; type: cell-based; conditions: PMA (100 ng/ml) stimulated, APHS 3, 10 and 30 µM, 2 days
Procedure: U1 cells (AIDS Reagents, Rockville, […]) were incubated with 100 ng/ml phorbol myristate acetate (PMA; Sigma) or with medium (negative control) for 30 min. Afterwards the cells were washed and seeded in a concentration of 1 × 10^6 cells/ml in RPMI 1640 medium containing 10% FCS and 10 µg/ml gentamycin either with increasing concentrations of APHS or with 30 mM N-acetyl-L-cysteine (NAC; Sigma), which served as a positive control. After 2 days of incubation, samples of the supernatant were collected, inactivated by addition of Empigen and by 30 min incubation at 56°C. The concentration of p24 was determined by ELISA (AMPAK™) as described above.

HIV-1 RT = HIV-1 RT (Human immunodeficiency virus type 1 group M subtype B, UniProt P04585); assay: Cell-free RT assay (primer extension); type: biochemical
Procedure: The HIV-1 RNA template (positions +1 to +368, with +1 being the capped G residue) was synthesized in vitro with T7 RNA polymerase as described previously ^27. In the reverse transcription assay, 10 ng of the RNA template was incubated with 1.5 µg calf liver tRNA ([…] total tRNA, of which approximately 1.2 pmol tRNA^lys3, Boehringer) or 20 ng of a DNA primer complementary to the primer binding site (PBS) (positions +182 to +202) in 12 µl annealing buffer (83 mM Tris-HCl pH 7.5, 125 mM KCl) at 85 °C for 2 min and 65 °C for 10 min, followed by cooling to room temperature over a 1h period. Reverse transcription was initiated by the addition of 6 µl RT buffer (9 mM MgCl2, 30 mM DTT, 150 µg/ml actinomycine D, 30 µM dATP, dGTP and dTTP and 1.5 µM dCTP), 0.5 µl [α-^32P]dCTP and 0.5 U HIV-1 RT (MRC) in the presence or absence of APHS (10, 30, 300 and 1000 µM) or 10% ethanol. The reaction was incubated for 30 min at 37 °C. The cDNA product was precipitated in 0.3 M sodiumacetate, pH 5.2 and 80% ethanol at-20°C, dissolved in formamide loading buffer and analyzed on a denaturing 6% polyacrylamide-urea sequencing gel.

RSV serotype A = assay: RSV infection of HEp-2 cells, FACS with FITC anti-RSV antibody; type: cell-based, Respiratory syncytium virus (RSV); conditions: HEp-2 cells, 4, 5 and 6 days, all APHS concentrations tested
Procedure: RSV infection of the HEp-2 cell line was performed as described elsewhere (Hament J-M et al., submitted for publication). Briefly, HEp-2 cells were recovered from the culture flasks by trypsinization. Concentrations of HEp-2 cells were determined by microscopic observation in order to have a confluent monolayer at the day of measurement. HEp-2 cells were incubated with APHS and infected with different dilutions of RSV in order to have a good infection at the day of measurement. […] The cells were washed with PBS^2+ (PBS containing 0.15 mM Ca^2+ and 0.5 mM Mg^2+) and incubated with murine-anti-RSV monoclonal antibody conjugated to fluorescein isothiocyanate (FITC) (DAKO, Cambridgeshire, UK) for 15 minutes at 37 °C. Afterwards, cells were washed and resuspended in PBS^2+. Percentage of fluorescent cells was analyzed by FACSCalibur flow cytometer (Becton Dickinson, CA, USA) with computer assisted evaluation data (CellQuest Pro).

HEp-2 cells = type: cell-based, Human
Procedure: HEp-2 cells were seeded in 96-wells plates in the presence of APHS for 4, 5 and 6 days. Concentrations of HEp-2 cells were determined by microscopic observation in order to have a confluent monolayer at the day of measurement. Afterwards a cellular viability assay was performed on these cells.

MHV-A59 = assay: MHV infection of mouse L cells, CPE scoring; type: cell-based, Mouse hepatitis virus (MHV); conditions: 24h, 143 to 0.009 µM
Procedure: (§1) After 24h, the cytopatic effect (CPE) of the virus and the cytotoxicity of the compounds were scored by microscopic observation.

Mouse L cells = assay: Cytotoxicity in mouse L cells by microscopic observation
Procedure: as §1

PBMC = assay: Cellular viability assay (MTT) of PBMC; conditions: PBMC viability, 7 days
184V = assay: Drug susceptibility assay (cell-killing MTT assay) in MT-2 cells; conditions: Human immunodeficiency virus 1, MT2, 120 h
Procedure: (§2) The cells were maintained at 37°C, 5% CO2. One day prior to the experiments, the cells were passaged 1:1 in a concentration of 1 × 10^6 cells/ml.
(§3) The genes that contain the drug resistance mutations are excised from the clinical isolates and cloned into the genetic background of HXB2. Thus all tested HIV-1 strains have the same genetic background. […] This strain contains an insertion of two a.a. between codons 68 and 69 of RT as well as an a.a. change at codon 67.
(§4) After 5 days of incubation a cellular viability assay was performed as described above. In this case, the amount of formazan reflects the number of cells protected by the drug against killing by the virus and is used as a read out for drug susceptibility.

3096 = assay: as above; conditions: Human immunodeficiency virus 1, MT2, 120 h
Procedure: as §2, §3, §4

HIV-1Ba-L [4] = assay: Combination of HIV-1 inhibitors in HIV-1Ba-L infected PBMC (checker board, CalcuSyn); conditions: Human immunodeficiency virus 1, PBMC
Procedure: After 7 days incubation, samples of the supernatants were collected, inactivated by addition of Empigen (Calbiochem, La Jolla, CA, USA) and by heat inactivation at 56°C for 30 min. p24-core antigen concentration was determined by an ELISA (AMPAK™, DAKO, Cambridgeshire, UK) as described previously ^39,40. The optical density values were converted into p24 concentration (ng/ml) with the use of a calibration curve made by serial dilutions of recombinant p24 protein (NIBSC, UK) that was submitted to the same treatment as the samples.
After 7 days of incubation, p24 antigen in culture supernatant was quantified by ELISA and cellular viability was assessed by a cytotoxicity assay. fa was calculated for each drug combination after p24 quantification. Using the CalcuSyn program, dose-effect curves were plotted for each drug combination, i.e., each dose was plotted against the corresponding fa value. […] CI values were calculated using the mutually nonexclusive assumption.

Procedure for MT2 cells: After 5 days of incubation a cellular viability assay was performed as described above.

## CCCCC#CCSc1ccccc1OC(C)=O [APHS, o-(acetoxyphenyl)hept-2-ynyl sulfide]
HIV-1Ba-L [1]
  IC50: 12 µM
[2]
  CC50 at 168 h: 147 µM
[3]
  HIV-1 production (p24) by U1 cells: not capable of inhibiting HIV-1 production
HIV-1 RT
  RT activity in the primer extension assay: no inhibition of RT activity
HIV-1 RT; 1000 µM APHS, effect probably due to the ethanol in the sample
  amount of reverse transcription product: decreased the amount of reverse transcription product
HIV-1 RT; APHS 10 to 300 µM
  cDNA formation: did not affect cDNA formation
RSV serotype A
  inhibition of RSV replication: no inhibition of RSV replication
HEp-2 cells
  cellular viability significantly decreased at concentrations above: above 10 µM
  cytotoxicity for HEp-2 cells: not cytotoxic
MHV-A59
  effect on MHV replication (CPE): no effect
Mouse L cells
  cytotoxicity by microscopic observation: not cytotoxic
MT2 cells
  toxicity for MT2 cells: did not show any significant toxicity
PBMC
  cytotoxic at concentrations above: above 30 µM
184V
  IC50: 5 µM
3096
  IC50: 4 µM
HIV-1Ba-L [4]; 168 h, read-out: IC50 Alone APHS, APHS alone, PBMC, HIV-1Ba-L, 7 days, one value per experiment with the named partner drug
  IC50: 10 to 15 µM
HIV-1Ba-L [4]; read-out: IC50 of APHS alone (mean), mean over the combination experiments
  IC50: 13 µM
HIV-1Ba-L [4]; read-out: IC50 of APHS in combination with RTI or PI (mean), mean over the combination experiments
  IC50: 5 µM

Reference: EP1452605A1, “Method for determining antiviral activity” (Universiteit Utrecht Holding B.V., priority 2003, dated 2004)
